Data as given in US6162798A, “Inhibitor of atherosclerotic intimal thickening” (priority 1991, dated 2000).

Key:
[1] = tested on: aortic medial smooth muscle cells (M-SMC); assay: Inhibitory effect on 3H-thymidine uptake in aortic medial smooth muscle cells; assay type: cell-based, healthy Japanese white rabbit; conditions: Oryctolagus cuniculus, 24 hours with compound, read-out: Inhibition (%) Media; for inhibition at 10 µM: drug concentration 10^-5 M; for inhibition at 1 µM: drug concentration 10^-6 M
Method: (§1) The inhibitory effects of the compound of the present invention on ^3 H-thymidine uptake in I-SMC and M-SMC were measured by the following methods. M-SMC and I-SMC are obtained from aortic media of a healthy Japanese white rabbit and from aortic intima of an atherosclerotic Japanese white rabbit as mentioned in Example 2. After three or four times subculture, the cells in the state of confluency were trypsinized and suspended in a DME medium containing 10% of FBS and an antibiotic so that the cell density would be 40,000 cells/ml. The 10,000 cells were seeded to a 48 well multi-well plate. After 4 days culture, the medium was replaced by the control medium or the medium containing a test compound as used in Example 2, and culture was continued for 24 hours. Then, 1 μCi ([…]) of ^3 H-thymidine was added thereto, and culture was continued for 3 hours. The cells were washed three times with a phosphate buffered physiological saline (PBS) and treated with chilled 5% trichloroacetic acid (TCA). The insoluble-fraction was washed with chilled TCA and then dissolved in a 0.5N potassium hydroxide aqueous solution. The ^3 H radioactivity was measured by a liquid scintillation counter and the protein content was measured. […] The inhibition (%) was calculated in accordance with the following formula.

[2] = tested on: aortic medial smooth muscle cells (M-SMC); assay: Inhibitory effects on migration of aortic medial smooth muscle cells (Boyden's chamber); assay type: cell-based, Sprague Dawley male rat; conditions: migration of rat M-SMC, drug concentration 10^-5 M, 4 hours
Method: The inhibitory effects of the compounds of the present invention on migration of M-SMC were measured by the following methods. Arterial medial slices of the thoracic of aorta of a Sprague Dawley male rat were cultured by using a medium of Dulbecco's Modified Eagle (DME) containing 10% fetal bovine serum (FBS) at 37° C. in an atmosphere comprising 95% of air and 5% of carbon dioxide for 3 or 4 weeks. The aortic medial smooth muscle cells grown from the arterial medial slices were subcultured by 1:2 split of cell density for stable subculture. After the three or four times subculture, the cells in the state of confluency were subjected to trypsinized and then suspended in the above medium at a cell density of 500,000 cells per ml. To the cell suspension, a test compound dissolved in dimethylsulfoxide (DMSO) was added so that the final DMSO concentration would be 0.2%, and the cell suspension was pre-incubated at 37° C. for 30 minutes. As a control, DMSO was added alone at the same concentration. In the lower compartment of Boyden's chamber partitioned with a nitrocellulose membrane, 10 ng/ml of a platelet-derived growth factor (PDGF) or DME medium containing a 10% SMC-conditioned DME medium (SMC-CM) obtained from 48 hours conditioning was filled as a migration factor. In the upper compartment thereof, 1 ml of the cell suspension was loaded, and incubation was conducted at 37° C. for 4 hours in a culture condition. As the blank, the DME medium without migration factor was filled in the lower compartment. After 4 hour incubation, the cells adhered to the upper side of the nitrocellulose membrane were removed, and the cells migrated to the lower side of the membrane were fixed and stained by Diff Quik. The number of migrated cells was counted in the 10 fields by a light microscope at 400 x HPF.

[3] = tested on: aortic intimal smooth muscle cells (I-SMC); assay: Inhibitory effects on proliferation of aortic intimal smooth muscle cells (cell count); assay type: cell-based, atherosclerotic Japanese white rabbit; conditions: Oryctolagus cuniculus, fold increase of cell number second to fifth day, read-out: Inhibition (%) Intima; for inhibition at 10 µM: drug concentration 10^-5 M; for inhibition at 1 µM: drug concentration 10^-6 M
Method: (§2) The inhibitory effects of the compounds of the present invention on the proliferation of I-SMC and M-SMC were measured by the following methods. […] After twice or three times subculture of cells, the cells in the state of confluency were trypsinized and suspended in the above medium so that the cell density would be 20,000 cells/ml. Then, the 10,000 cells were seeded and cultured on a 24 well multi-well plate. After incubation for 6 hours, the medium was replaced by 0.5 ml of a control medium or a medium containing a test compound. At the same time, the number of cells initially attached to the plate was counted and taken as the initial cell number (I). The test compound was added to the medium as described in Example 1. As the control, DMSO was added alone so that the final concentration would be 0.2%. The medium change was carried out every 2 days, and on the first, second, third, fifth and seventh days, the cells were trypsinized and suspended in Isoton and counted cell number by a Coulter counter. The obtained results were represented by an average number of cells of three wells in each case, and the inhibition (%) of the fold increase of the cell number from the second day to the fifth day was calculated in accordance with the following formula.

[4] = tested on: aortic medial smooth muscle cells (M-SMC); assay: Inhibitory effects on proliferation of aortic medial smooth muscle cells (cell count); assay type: cell-based, healthy Japanese white rabbit; conditions: Oryctolagus cuniculus, fold increase of cell number second to fifth day, read-out: Inhibition (%) Media; for inhibition at 10 µM: drug concentration 10^-5 M; for inhibition at 1 µM: drug concentration 10^-6 M
Method: as §2

[5] = tested on: aortic intimal smooth muscle cells (I-SMC); assay: Inhibitory effect on 3H-thymidine uptake in aortic intimal smooth muscle cells; assay type: cell-based, atherosclerotic Japanese white rabbit; conditions: Oryctolagus cuniculus, 24 hours with compound, read-out: Inhibition (%) Intima; for inhibition at 10 µM: drug concentration 10^-5 M; for inhibition at 1 µM: drug concentration 10^-6 M
Method: as §1

[6] = tested on: J774 macrophages (J774-M.phi.); assay: Inhibitory effects against adhesion of J774 macrophages; assay type: cell-based; conditions: Mus musculus, 48 hours pretreatment; for inhibition at 10 µM: drug concentration 10^-5 M; for inhibition at 1 µM: drug concentration 10^-6 M
Method: The inhibitory effects of the compounds in the present invention on cell adhesion of J774-M.phi. were measured by the following methods. […] Then, culture was continued with a control medium containing 0.2% of DMSO or with a medium containing a test compound for 48 hours as pretreatment. Then, the cells were scraped by means of a rubber policeman and suspended in the above medium. 200,000 cells were seeded to a 24 well multi-well plate., and cultured for 12 hours. After that, the cells attached to the well plates were scraped by a rubber policeman, and the number of cells was counted by a Coulter counter. The obtained results are represented by an average value of the number of cells in three wells at the time of the pretreatment, in each case, and the inhibition (%) on the adhesion was calculated in accordance with the following formula.

leukemic cells (HL-60) = assay: Inhibitory effects against adhesion of leukemic cells (HL-60) induced by TPA; assay type: cell-based; conditions: Homo sapiens, HL-60, TPA-induced, 48 hours pretreatment; for inhibition at 10 µM: drug concentration 10^-5 M
Method: The inhibitory effects of the compounds in the present invention on cell adhesion of HL-60 were measured by the following methods. HL-60 cells were cultured in a RPMI 1640 medium containing 10% of FBS and an antibiotic at 37° C. in an atmosphere comprising 95% of air and 5% of carbon dioxide and then seeded to a 6 well multi-well plate in an amount of 2 ml per well at a cell density of 1,000,000/ml. A test compound dissolved in DMSO was added so that the final DMSO concentration would be 0.2%, and incubation was carried out for 48 hours for pretreatment. Then, 500,000 cells were seeded to a 24 well multi-well plate, and 0.02 mM of phorbol myristate acetate (TPA) dissolved in ethanol, was added in an amount of 1/250 (v/v) of the culture medium, and then culture was continued for 12 hours. After that, the cells were washed with PBS and the cells attached to the well plates were scraped off by trypsinization and suspended in Isoton, and the number of cells were counted by a Coulter counter. A control test was carried out by adding DMSO alone.

[7] = migration factor 10 ng/ml PDGF, read-out: Inhibition (%) PDGF
[8] = migration factor 10% SMC-conditioned medium, read-out: Inhibition (%) SMC-CM

Compound	inhibition at 10 µM [1]	inhibition at 1 µM [1]	inhibition at 10 µM [2, 7]	inhibition at 10 µM [2, 8]	inhibition at 10 µM [3]	inhibition at 1 µM [3]	inhibition at 10 µM [4]	inhibition at 1 µM [4]	inhibition at 10 µM [5]	inhibition at 1 µM [5]	inhibition at 10 µM [6]	inhibition at 1 µM [6]	inhibition at 10 µM (leukemic cells (HL-60))	inhibition at 1 µM (leukemic cells (HL-60); drug concentration 10^-6 M)	inhibition at 0.1 µM (leukemic cells (HL-60); drug concentration 10^-7 M)
Cc1nn(C)c2nc(C3CC3)c(/C=C/[C@@H]3C[C@@H](O)CC(=O)O3)c(-c3ccc(F)cc3)c12 (relative stereo) [Test compound 2, (E)-trans-6-(2'-[6"-cyclopropyl-1',3'-dimethyl-4'-(4'"-fluorophenyl)pyrazolo[3,4-b]pyridin-5"-yl]ethenyl)-4-hydroxy-3,4,5,6-tetrahydro-2H-pyran-2-one]	88.4%	36.4%	98.2%	32.8%	98.2%	84.6%	86.5%	4.7%	91.5%	11.7%	–	–	–	–	–
CCc1c(C)sc2nc(C3CC3)c(/C=C/[C@@H]3C[C@@H](O)CC(=O)O3)c(-c3ccc(F)cc3)c12 (relative stereo) [Test compound 3, (E)-trans-6-(2'-[2'-cyclopropyl-5'-ethyl-3'-(4'"-fluorophenyl)-6'-methylthieno[2,3-b]pyridin-3'-yl]ethenyl)-4-hydroxy-3,4,5,6-tetrahydro-2H-pyran-2-on]	92.2%	53.6%	100%	41.7%	100%	100%	100%	31.5%	94.1%	69.9%	92.4%	92.2%	96.4%	92.2%	4.8%
CC[C@H](C)C(=O)O[C@H]1C[C@H](O)C=C2C=C[C@H](C)[C@H](CC[C@@H](O)C[C@@H](O)CC(=O)O)[C@H]21 [Pravastatin, reference compound]	-34.3%	8.7%	61.8%	26.2%	1.3%	1.3%	-11.7%	8.7%	-7.2%	-7%	41.3%	40%	-2.8%	–	–
